Drawing on patent publication US8299048B2, “Hexahydrocyclopentyl[f]indazole sulfonamides and derivatives thereof as selective glucocorticoid receptor modulators” (Merck Sharp & Dohme Corp., priority 2008, dated 2012), this text covers Ki for 14 molecules.

The test concerns the target T1, glucocorticoid receptor (Homo sapiens, UniProt P04150).
T1 construct: endogenous in cells
T1 sequence (P04150 1-777): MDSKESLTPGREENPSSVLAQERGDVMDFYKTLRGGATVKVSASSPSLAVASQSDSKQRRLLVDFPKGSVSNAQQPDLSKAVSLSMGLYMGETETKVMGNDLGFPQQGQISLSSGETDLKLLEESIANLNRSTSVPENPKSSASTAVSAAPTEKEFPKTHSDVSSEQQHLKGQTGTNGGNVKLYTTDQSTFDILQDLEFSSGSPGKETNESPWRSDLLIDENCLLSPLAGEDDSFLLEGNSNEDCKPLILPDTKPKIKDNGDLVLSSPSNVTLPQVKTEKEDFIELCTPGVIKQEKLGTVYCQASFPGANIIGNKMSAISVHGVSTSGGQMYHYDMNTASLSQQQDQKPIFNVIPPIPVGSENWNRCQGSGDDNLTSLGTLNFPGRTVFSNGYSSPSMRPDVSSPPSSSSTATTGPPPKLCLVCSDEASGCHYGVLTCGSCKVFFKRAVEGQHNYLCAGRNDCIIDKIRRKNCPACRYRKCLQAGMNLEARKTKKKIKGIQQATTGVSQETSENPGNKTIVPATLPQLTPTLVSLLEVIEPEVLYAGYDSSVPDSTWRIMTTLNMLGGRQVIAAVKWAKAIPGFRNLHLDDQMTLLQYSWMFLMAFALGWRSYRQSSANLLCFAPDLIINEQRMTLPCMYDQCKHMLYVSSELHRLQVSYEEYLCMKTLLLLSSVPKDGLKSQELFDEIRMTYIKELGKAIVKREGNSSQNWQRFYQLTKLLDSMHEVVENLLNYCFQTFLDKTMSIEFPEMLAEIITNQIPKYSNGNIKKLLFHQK
Nature of the test: Ligand binding assay (GR BIND). The essentials: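 Cytosol from freeze–thawed cells in TEGM (pH 7.2, 10 mM molybdate) was incubated overnight at 4 °C with compound and [3H]-dexamethasone trace (added as 6 nM solution), 2% EtOH final. Bound ligand was captured on hydroxylapatite, filtered, washed and scintillation counted. Values were calculated with dexamethasone as reference.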
The molecule `C[C@]12Cc3cnn(-c4ccc(F)cc4)c3C=C1CC[C@@H]2CN(CCO)S(=O)(=O)c1ccccc1Cl` [Example 81, 2-chloro-N-{[(4αR,5S)-1-(4-fluorophenyl)-4α-methyl-1,4,4α,5,6,7-hexahydrocyclopenta[f]indazol-5-yl]methyl}-N-(2-hydroxyethyl)benzenesulfonamide] came in with a Ki of 7.2 nM.

In turn, `C[C@]12Cc3cnn(-c4ccc(F)cc4)c3C=C1CC[C@@H]2CN(CCO)S(=O)(=O)c1ccc(F)cc1F` [Example 82, 2,4-difluoro-N-{[(4αR,5S)-1-(4-fluorophenyl)-4α-methyl-1,4,4α,5,6,7-hexahydrocyclopenta[f]indazol-5-yl]methyl}-N-(2-hydroxyethyl)benzenesulfonamide] gave a Ki of 3.2 nM. Against the preceding molecule, the Ki is about 2.2-fold lower.

For the molecule `Cc1nn(C)c(Cl)c1S(=O)(=O)N(CCO)C[C@H]1CCC2=Cc3c(cnn3-c3ccc(F)cc3)C[C@@]21C` [Example 83, 5-chloro-N-{[(4αR,5S)-1-(4-fluorophenyl)-4α-methyl-1,4,4α,5,6,7-hexahydrocyclopenta[f]indazol-5-yl]methyl}-N-(2-hydroxyethyl)-1,3-dimethyl-1H-pyrazole-4-sulfonamide], the Ki was found to be 3.7 nM.

In turn, `C[C@]12Cc3cnn(-c4ccc(F)cc4)c3C=C1CC[C@@H]2CN(CCO)S(=O)(=O)c1ccccc1-c1ccccc1` [Example 84, N-{[(4αR,5S)-1-(4-fluorophenyl)-4α-methyl-1,4,4α,5,6,7-hexahydrocyclopenta[f]indazol-5-yl]methyl}-N-(2-hydroxyethyl)biphenyl-2-sulfonamide] had a Ki of 2.6 nM.

Consider `CC(=O)Nc1ccc(S(=O)(=O)N(CCO)C[C@H]2CCC3=Cc4c(cnn4-c4ccc(F)cc4)C[C@@]32C)cc1` [Example 85, N-(4-{[{[(4αR,5S)-1-(4-fluorophenyl)-4α-methyl-1,4,4α,5,6,7-hexahydrocyclopenta[f]indazol-5-yl]methyl}(2-hydroxyethyl)amino]sulfonyl}phenyl)acetamide], for which the Ki came to 6.9 nM.

Molecule `C[C@]12Cc3cnn(-c4ccc(F)cc4)c3C=C1CC[C@@H]2CN(CCc1ccccc1F)S(=O)(=O)c1ccccc1F` [Example 86, 2-fluoro-N-[2-(2-fluorophenyl)ethyl]-N-{[(4αR,5S)-1-(4-fluorophenyl)-4α-methyl-1,4,4α,5,6,7-hexahydrocyclopenta[f]indazol-5-yl]methyl}benzenesulfonamide] had a Ki of 4.2 nM.

On to `CCCS(=O)(=O)N(CCc1ccccc1F)C[C@H]1CCC2=Cc3c(cnn3-c3ccc(F)cc3)C[C@@]21C` [Example 87, N-[2-(2-fluorophenyl)ethyl]-N-{[(4αR,5S)-1-(4-fluorophenyl)-4α-methyl-1,4,4α,5,6,7-hexahydrocyclopenta[f]indazol-5-yl]methyl}propane-1-sulfonamide], for which the Ki was 2.8 nM.

For `C[C@]12Cc3cnn(-c4ccc(F)cc4)c3C=C1CC[C@@H]2CN(CCc1ccccc1F)S(=O)(=O)Cc1cccc(C(F)(F)F)c1` [Example 88, N-[2-(2-fluorophenyl)ethyl]-N-{[(4αR,5S)-1-(4-fluorophenyl)-4α-methyl-1,4,4α,5,6,7-hexahydrocyclopenta[f]indazol-5-yl]methyl}-1-[3-(trifluoromethyl)phenyl]methanesulfonamide], the Ki came out at 3.7 nM.

As to `C[C@]12Cc3cnn(-c4ccc(F)cc4)c3C=C1CC[C@@H]2CN(CCc1ccccc1F)S(=O)(=O)CC(F)(F)F` [Example 89, 2,2,2-trifluoro-N-[2-(2-fluorophenyl)ethyl]-N-{[(4αR,5S)-1-(4-fluorophenyl)-4α-methyl-1,4,4α,5,6,7-hexahydrocyclopenta[f]indazol-5-yl]methyl}ethanesulfonamide], affinity was put at a Ki of 2.4 nM.

Turning to `COc1ccccc1CCN(C[C@H]1CCC2=Cc3c(cnn3-c3ccc(F)cc3)C[C@@]21C)S(=O)(=O)c1ccccc1F` [Example 90, 2-fluoro-N-{[(4αR,5S)-1-(4-fluorophenyl)-4α-methyl-1,4,4α,5,6,7-hexahydrocyclopenta[f]indazol-5-yl]methyl}-N-[2-(2-methoxyphenyl)ethyl]benzenesulfonamide], the Ki stood at 3.6 nM.

Take `Cc1ccc(CCN(C[C@H]2CCC3=Cc4c(cnn4-c4ccc(F)cc4)C[C@@]32C)S(=O)(=O)c2ccccc2F)cc1` [Example 91, 2-fluoro-N-{[(4αR,5S)-1-(4-fluorophenyl)-4α-methyl-1,4,4α,5,6,7-hexahydrocyclopenta[f]indazol-5-yl]methyl}-N-[2-(4-methylphenyl)ethyl]benzenesulfonamide]: the inhibition constant Ki was 2 nM.

For the molecule `C[C@]12Cc3cnn(-c4ccc(F)cc4)c3C=C1CC[C@@H]2CN(CCc1ccccc1Cl)S(=O)(=O)c1ccccc1F` [Example 92, N-[2-(2-chlorophenyl)ethyl]-2-fluoro-N-{[(4αR,5S)-1-(4-fluorophenyl)-4α-methyl-1,4,4α,5,6,7-hexahydrocyclopenta[f]indazol-5-yl]methyl}benzenesulfonamide], the Ki was determined as 3 nM.

Take `CC(C1CCC2=Cc3c(cnn3-c3ccc(F)cc3)C[C@@]21C)N(CCc1ccccc1F)S(=O)(=O)CC(F)(F)F` (stereo partly drawn) [Example 93, 2,2,2-trifluoro-N-[2-(2-fluorophenyl)ethyl]-N-{1-[(4αR)-1-(4-fluorophenyl)-4α-methyl-1,4,4α,5,6,7-hexahydrocyclopenta[f]indazol-5-yl]ethyl}ethanesulfonamide]: the Ki was 2.7 nM.

In turn, `COCCN(C[C@H]1CCC2=Cc3c(cnn3-c3ccc(F)cc3)C[C@@]21C)S(=O)(=O)c1ccccc1F` [Example 94, 2-fluoro-N-{[(4αR,5S)-1-(4-fluorophenyl)-4α-methyl-1,4,4α,5,6,7-hexahydrocyclopenta[f]indazol-5-yl]methyl}-N-(2-methoxyethyl)benzenesulfonamide] returned a Ki of 2.9 nM.

Usually Ki stands for the dissociation constant of the complex between target and ligand, obtained from inhibition or displacement. Read a high Ki as lower affinity.
